Test results as given in US4755526A, “Method of inhibiting aromatase” (Eli Lilly and Company, priority 1984, dated 1988).
pEC50: −log10 of the molar value. Counter-ions that a name gives are not always drawn.

System: estrogen synthesis
Experiment: Estrogen synthesis inhibition in rats (uterine weight and ovarian steroid concentrations)
Type: in vivo, female Wistar rats
Conditions: 30 ppm in feed (approximately 3 mg/kg/day), ovaries
Procedure: Test compounds were administered for seven days either daily by gavage in corn oil or as a component of the diet. Control animals received either corn oil or diet without the test compound. Beginning on the fourth day of the test, all animals treated with the test compound and one half of the control animals were given a subcutaneous injection of 1.0 mg of testosterone propionate in corn oil. The remaining control animals received only an equivalent volume of corn oil.
After two hours, the animals were killed by decapitation. Uteri were isolated, trimmed of extraneous connective tissue, and weighed. […] In the control animals treated with testosterone propionate, estrogens produced by aromatization stimulated the uterus resulting in an increase in weight.
The ovarian steroids were extracted with 1.5 ml of 9:1 (v/v) toluene/ethanol to which had been added 25 to 100 mcg each of unlabelled estradiol, estriol, and estrone, and approximately 1000 dpm of [^14 C]-estradiol. The samples were vortexed, centrifuged at 500×g for 10 minutes, and the organic phase was transferred to a conical vial. Two additional extractions were performed on the residue in the same way. The pooled organic extracts were evaporated for subsequent thin-layer chromatography.
Ovarian proteins were precipitated by the addition of 5.0 ml of ethanol to the remaining aqueous phase. After an overnight incubation at 4° C., the samples were centrifuged at 1500×g for 10 minutes. The supernatant was discarded, and the pellet was dissolved in 0.3N potassium hydroxide.
The organic residue from each above extraction was redissolved in 9:1 (v/v) dichloromethane/methanol. The solution of each sample was applied to separate silica gel thin layer chromatography plates which contained a fluorescent indicator. The plates were developed in the first dimension with 160:38:1.5:0.5 (v/v/v/v) dichloromethane/ethyl acetate/methanol/acetic acid to within 3 cm of the top of the plate. After air-drying, the plate was developed in the second dimension with 180:19:1 (v/v/v) dichloromethane/methanol/ammonium hydroxide. The plate was air-dried and viewed under 254 nm UV light.
The visible spots were marked and the plates were sprayed with primulin (0.001% in 4:1 v/v acetone/water) according to the method of Wright, J. Chromatography, 59, 220 (1971) which allowed for the identification of additional steroids under 365 nm UV light. The spots were scraped from the plate using a glass wool plugged Pasteur pipet attached to a vacuum line. The steroids were eluted directly into scintillation vials by the addition of 0.2 ml of dichloromethane followed by two washes each of 2.0 ml of methanol. The organic solvent was evaporated and 10.0 ml of scintillation fluid (Beckman Ready Solv-NA) was added to the vials. Samples were analyzed by liquid scintillation spectrometry. Corrections were made based on the recoveries of the [^14 C]-steroid. Steroid concentrations are expressed as femtomoles per milligram protein.

SMILES	Mean Steroid Concentration, estradiol	Mean Steroid Concentration, estriol
Clc1ccc(C(c2ccc(Cl)cc2)n2cnnc2)cc1 [4-[bis(4-chlorophenyl)methyl]-4H--1,2,4-triazole]	0.46 femtomoles per milligram of protein	0.60 femtomoles per milligram of protein

Same assay, conditions: 30 ppm in feed (approximately 3 mg/kg/day), testosterone propionate-treated rats

SMILES	Mean Uterine Weight [mg]
Clc1ccc(C(c2ccc(Cl)cc2)(c2cncnc2)n2ccnc2)cc1 [5-[bis(4-chlorophenyl)-1H--imidazol-1-ylmethyl]pyrimidine]	107.5
COc1ccccc1C(c1ccccc1)n1ccnc1 (centres unmarked) [1-[(2-methoxyphenyl)phenylmethyl]-1H--imidazole nitrate]	176.0
Clc1ccc(C(c2ccc(Cl)cc2)n2cnnc2)cc1 [4-[bis(4-chlorophenyl)methyl]-4H--1,2,4-triazole]	113.3

Same assay, conditions: 300 ppm in feed (approximately 30 mg/kg/day), ovaries

SMILES	Mean Steroid Concentration, estradiol	Mean Steroid Concentration, estriol	Mean Steroid Concentration, estrone
Clc1ccc(C(c2ccc(Cl)cc2)n2cnnc2)cc1 [4-[bis(4-chlorophenyl)methyl]-4H--1,2,4-triazole]	0.48 femtomoles per milligram of protein	0.64 femtomoles per milligram of protein	0.10 femtomoles per milligram of protein

Same assay, conditions: 300 ppm in feed (approximately 30 mg/kg/day), testosterone propionate-treated rats

SMILES	Mean Uterine Weight [mg]
Clc1ccc(C(c2ccc(Cl)cc2)(c2cncnc2)n2ccnc2)cc1 [5-[bis(4-chlorophenyl)-1H--imidazol-1-ylmethyl]pyrimidine]	87.6
COc1ccccc1C(c1ccccc1)n1ccnc1 (centres unmarked) [1-[(2-methoxyphenyl)phenylmethyl]-1H--imidazole nitrate]	212.6
Clc1ccc(C(c2ccc(Cl)cc2)n2cnnc2)cc1 [4-[bis(4-chlorophenyl)methyl]-4H--1,2,4-triazole]	97.3

Target: T1, aromatase (Rattus norvegicus, UniProt P22443)
T1 construct: ovarian microsomes are obtained from rats treated with pregnant mares serum gonadotropin; from tissue; host or cells: ovarian microsomes of rats treated with pregnant mares serum gonadotropin
T1 sequence (P22443 1-508): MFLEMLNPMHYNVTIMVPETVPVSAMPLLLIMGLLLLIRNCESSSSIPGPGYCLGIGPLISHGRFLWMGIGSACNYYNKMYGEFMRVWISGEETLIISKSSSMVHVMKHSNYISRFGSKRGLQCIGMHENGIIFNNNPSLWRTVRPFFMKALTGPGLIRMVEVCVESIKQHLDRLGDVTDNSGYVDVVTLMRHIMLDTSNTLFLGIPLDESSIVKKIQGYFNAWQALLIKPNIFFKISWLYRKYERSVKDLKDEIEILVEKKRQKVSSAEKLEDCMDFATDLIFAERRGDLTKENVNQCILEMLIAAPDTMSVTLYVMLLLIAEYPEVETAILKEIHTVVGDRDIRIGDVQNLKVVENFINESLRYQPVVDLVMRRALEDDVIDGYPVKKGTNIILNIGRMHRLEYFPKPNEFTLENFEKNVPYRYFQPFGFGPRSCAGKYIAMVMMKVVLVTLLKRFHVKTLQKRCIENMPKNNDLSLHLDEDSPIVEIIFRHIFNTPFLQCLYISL
Experiment: Aromatase inhibition in the rat ovarian microsome assay
Type: biochemical
Conditions: EC50: concentration required to achieve 50% inhibition of aromatase activity, substrate (androstenedione) concentration 0.1 μM
Procedure: In this test system, ovarian microsomes are obtained from rats treated with pregnant mares serum gonadotropin. Test compounds are added to reaction vials containing 0.1 μM 4-androstene-3,17-dione, 100,000 dpm 1,2[^3 H]-androstenedione, the microsomes and a NADPH generating system. The concentrations of the inhibitors tested ranged between 0.005 and 10 μM.

SMILES	pEC50
Fc1ccc(Cn2ccnc2)cc1 [1-[(4-fluorophenyl)methyl]-1H--imidazole nitrate]	6.20
Cc1cccc(Cn2ccnc2)c1 [1-[(3-methylphenyl)methyl]-1H--imidazole ethanedioate]	6.04
FC(F)(F)c1ccccc1Cn1ccnc1 [1-[(2-trifluoromethylphenyl)methyl]-1H--imidazole hydrochloride]	5.76
CCOc1ccccc1Cn1ccnc1 [1-[(2-ethoxyphenyl)methyl]-1H--imidazole hydrochloride]	5.81
Clc1ccc(Cn2ccnc2)cc1 [1-(4-chlorobenzyl)imidazole hydrochloride]	6.35
FC(F)(F)c1ccc(Cn2ccnc2)cc1 [1-[(4-trifluoromethylphenyl)methyl]-1H--imidazole ethanedioate]	6.72
c1ccc(C(c2ccccc2)(c2cccc3ccccc23)n2ccnc2)cc1 [1-(1-naphthalenyldiphenylmethyl)-1H--imidazole]	7.02
COc1ccc(C(c2ccccc2)(c2ccc(OC)cc2)n2cncn2)cc1 [1-[bis(4-methoxyphenyl)phenylmethyl]-1H--1,2,4-triazole]	6.62
Cc1nccn1C(c1ccccc1)(c1ccc(F)cc1)c1ccc(F)cc1 [1-[bis(4-fluorophenyl)phenylmethyl]-2-methyl-1H--imidazole]	7.10
CC(C)(C)C(c1ccc(Cl)cc1)(c1cccnc1)n1ccnc1 (stereo not drawn) [3-(α-tert-butyl-4-chloro-α-imidazol-1-ylbenzyl)pyridine]	7.00
c1ccc(C2(n3ccnc3)CCCCC2)cc1 [1-(1-phenylcyclohexyl)-1H--imidazole]	7.03
Clc1ccc(C(c2ccccc2)(c2ccc(Cl)cc2)n2ccnc2)cc1 [1-[bis(4-chlorophenyl)phenylmethyl]-1H--imidazole]	6.96
c1ccc(C2(n3ccnc3)CCCCCC2)cc1 [1-(1-phenylcycloheptyl)-1H--imidazole]	6.96
c1ccc(C(c2ccccc2)(c2ccccn2)n2ccnc2)cc1 [2-(1H--imidazol-1-yldiphenylmethyl)pyridine]	> 7.30
COc1cccc(Cn2ccnc2)c1 [1-[(3-methoxyphenyl)methyl]-1H--imidazole ethanedioate]	5.90
Clc1cc(Cl)cc(Cn2ccnc2)c1 [1-[(3,5-dichlorophenyl)methyl]-1H--imidazole hydrochloride]	6.96
Clc1ccccc1C(c1ccccc1Cl)n1cncn1 [1-[bis(2-chlorophenyl)methyl]-1H--1,2,4-triazole]	< 5.30
CSc1ccc(C(c2ccccc2)(c2cccnc2)n2cncn2)cc1 (centres unmarked) [3-([4-(methylthio)phenyl]phenyl-1H--1,2,4-triazol-1-ylmethyl)pyridine]	6.71
Clc1ccccc1Cn1ccnc1 [1-(2-chlorobenzyl)imidazole hydrochloride]	5.46
CC(C)C(c1cccc2ccccc12)n1ccnc1 (centres unmarked) [1-[2-methyl-1-(1-naphthalenyl)propyl]-1H--imidazole nitrate]	6.39
CCCC(c1ccccc1OCc1ccc(Cl)cc1Cl)n1ccnc1 (centres unmarked) [1-[1-(2-[2,4-dichlorobenzyloxy]phenyl)butyl]-1H--imidazole nitrate]	6.90
Cc1nccn1C(c1ccccc1)(c1ccc(Cl)cc1)c1ccc(Cl)cc1 [1-[bis(4-chlorophenyl)phenylmethyl]-2-methyl-1H--imidazole]	7.03
Fc1ccc(C(c2ccc(Cl)cc2)n2cncn2)cc1 (centres unmarked) [1-[(4-chlorophenyl)(4-fluorophenyl)methyl]-1H--1,2,4-triazole]	> 7.30
c1ccc(C(c2ccccc2)(c2ccncc2)n2cncn2)cc1 [4-(diphenyl-1H--1,2,4-triazole-1-ylmethyl)pyridine]	6.80
Clc1ccc(C(c2ccccc2)n2cncn2)cc1 (centres unmarked) [1-[(4-chlorophenyl)phenylmethyl]-1H--1,2,4-triazole]	6.82
Cc1nccn1C(c1ccccc1)(c1ccccc1)c1ccc(Cl)cc1 [1-[(4-chlorophenyl)diphenylmethyl]-2-methyl-1H--imidazole]	7.10
Clc1cccc(Cn2ccnc2)c1 [1-(3-chlorobenzyl)imidazole]	5.44

SMILES	pEC50
Fc1ccccc1Cn1ccnc1 [1-[(2-fluorophenyl)methyl]-1H--imidazole nitrate]	5.58
Clc1ccc(C(c2ccccc2)(c2ccccc2)n2ccnc2)cc1 [1-[(4-chlorophenyl)diphenylmethyl)-1H--imidazole]	7.16
Clc1ccc(Cn2ccnc2)c(Cl)c1 [1-[(2,4-dichlorophenyl)methyl]-1H--imidazole hydrochloride]	6.14
c1ccc(CCOc2ccccc2Cn2ccnc2)cc1 [1-[(2-[2-phenylethoxy]phenyl)methyl]-1H--imidazole nitrate]	7.07
Cc1nccn1C(c1ccccc1)(c1ccccc1)c1ccncc1 [4-[(2-methyl-1-imidazol-1-yl)diphenylmethyl]pyridine]	6.92
COc1ccccc1Cn1ccnc1 [1-[(2-methoxyphenyl)methyl]-1H--imidazole hydrochloride]	5.68
Cc1nccn1C(c1ccccc1)(c1ccccc1)c1ccccc1 [2-methyl-1-tritylimidazole]	5.89
Fc1ccc(C(c2ccc(F)cc2)n2cncn2)cc1 [1-[bis(4-fluorophenyl)methyl]-1H--1,2,4-triazole]	7.03
C#CC(c1ccc(Cl)cc1)(c1ccc(Cl)cc1)n1ccnc1 [1-[1,1-bis(4-chlorophenyl)-2-propynyl]-1H--imidazole]	> 7.30
FC(F)(F)c1ccc(C(c2ccc(Cl)cc2)(c2cncnc2)n2ccnc2)cc1 (centres unmarked) [5-[(4-chlorophenyl)-1H--imidazol-1-yl(4-trifluoromethylphenyl)methyl]pyrimidine]	7.52
Clc1ccc(Cn2cncn2)cc1 [1-(4-chlorobenzyl)-1H--1,2,4-triazole]	< 5.30
Clc1ccc(C(c2ccccc2)(c2ccccc2)n2cncn2)cc1 [1-[(4-chlorophenyl)diphenylmethyl]-1H--1,2,4-triazole]	7.02
CC(c1ccccc1Cl)n1ccnc1 (centres unmarked) [1-[1-(2-chlorophenyl)ethyl]-1H--imidazole hydrochloride]	5.60
CC(c1ccccc1)n1ccnc1 (centres unmarked) [1-(1-phenylethyl)-1H--imidazole hydrochloride]	5.98
c1ccc2c(Cn3ccnc3)cccc2c1 [1-(1-naphthalenylmethyl)-1H--imidazole hydrochloride]	6.48
Clc1ccc(C(c2ccc(Cl)cc2)(c2ccc(Cl)cc2)n2cncn2)cc1 [1-[tris(4-chlorophenyl)methyl]-1H--1,2,4-triazole]	6.38
c1ccc(C(c2ccccc2)(c2ccccc2)n2cncn2)cc1 [1-trityl-1H--1,2,4-triazole]	6.51
Clc1ccccc1C(c1cccnc1)(c1ccccc1Cl)n1ccnc1 [3-[bis(2-chlorophenyl)-1H--imidazol-1-ylmethyl]pyridine]	6.52
CCOc1ccccc1C(CC)n1ccnc1 (centres unmarked) [1-[1-(2-ethoxyphenyl)propyl]-1H--imidazole nitrate]	6.85
c1ccc(Cn2ccnc2)cc1 [1-benzylimidazole]	5.55
c1ccc(C(c2ccccc2)(c2cncnc2)n2cncn2)cc1 [5-(diphenyl-1H--1,2,4-triazol-1-ylmethyl)pyrimidine]	6.08
Clc1ccc(Cn2ccnc2)cc1 [1-(4-chlorobenzyl)-1H--imidazole]	6.85
Fc1ccc(C(c2ccccc2)(c2ccc(F)cc2)n2ccnc2)cc1 [1-bis(4-fluorophenyl)phenylmethyl]-1H--imidazole]	7.40
COc1ccc(Cn2ccnc2)cc1 [1-[(4-methoxyphenyl)methyl]-1H--imidazole hydrochloride]	5.60
O=[N+]([O-])c1cccc(Cn2ccnc2)c1 [1-[(3-nitrophenyl)methyl]-1H--imidazole hydrochloride]	5.95
Cc1ccccc1Cn1ccnc1 [1-[(2-methylphenyl)methyl]-1H--imidazole hydrochloride]	5.82
Cc1ccc(Cn2ccnc2)cc1 [1-[(4-methylphenyl)methyl]-1H--imidazole hydrochloride]	6.08
